From the supplement of paper PMC10307832

Key:
Test in all cases: relative viability (nuclei count vs DMSO), 5 days (fraction); higher = more cells survive
BAM7 + Decitabine = compound: CCOC1=CC=CC=C1N=NC2=C(NN(C2=O)C3=NC(=CS3)C4=CC=CC=C4)C [BAM7] + Nc1ncn([C@H]2C[C@H](O)[C@@H](CO)O2)c(=O)n1 [Decitabine] (partner 2 µM)
Method in brief: (§1)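 For relative viability, nuclei counts in treated wells were divided by those in vehicle wells. Lung cancer cell lines had been pin-tool dosed in 1536-well plates the day after seeding and cultured for 5 days, then fixed and stained in one step (final 0.05% Triton X-100, 1% formaldehyde, 1 ug/ml Hoechst) and imaged at 4×. Doses were one drug alone or a fixed anchor-drug dose plus five library-drug doses (not always all listed) in √10 steps, and values are duplicate-plate medians.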

BAM7 + Bortezomib = compound: CCOC1=CC=CC=C1N=NC2=C(NN(C2=O)C3=NC(=CS3)C4=CC=CC=C4)C [BAM7] + CC(C)C[C@H](NC(=O)[C@H](Cc1ccccc1)NC(=O)c1cnccn1)B(O)O [Bortezomib] (partner 0.002 µM)
Method in brief: as §1

[1] = compound: CCn1c(-c2nonc2N)nc2c(C#CC(C)(C)O)ncc(OC[C@H]3CCCNC3)c21 + CCNC(=O)c1noc(-c2cc(C(C)C)c(O)cc2O)c1-c1ccc(CN2CCOCC2)cc1 [Luminespib] (partner 0.01 µM)
Method in brief: as §1

[2] = compound: CCn1c(-c2nonc2N)nc2c(C#CC(C)(C)O)ncc(OC[C@H]3CCCNC3)c21 + Cc1nc(Nc2ncc(C(=O)Nc3c(C)cccc3Cl)s2)cc(N2CCN(CCO)CC2)n1 [Dasatinib] (partner 0.075 µM)
Method in brief: as §1

Cell Line | relative viability (BAM7 + Decitabine; first compound 0.5 µM) | relative viability (BAM7 + Decitabine; first compound 5 µM) | relative viability (BAM7 + Decitabine; first compound 15.81 µM) | relative viability (BAM7 + Decitabine; first compound 50 µM) | relative viability (BAM7 + Bortezomib; first compound 0.5 µM) | relative viability (BAM7 + Bortezomib; first compound 5 µM) | relative viability (BAM7 + Bortezomib; first compound 15.81 µM) | relative viability (BAM7 + Bortezomib; first compound 50 µM) | relative viability ([1]; first compound 0.01 µM) | relative viability ([1]; first compound 0.03162 µM) | relative viability ([1]; first compound 0.1 µM) | relative viability ([1]; first compound 0.3162 µM) | relative viability ([1]; first compound 1 µM) | relative viability ([2]; first compound 0.01 µM) | relative viability ([2]; first compound 0.03162 µM) | relative viability ([2]; first compound 0.1 µM) | relative viability ([2]; first compound 0.3162 µM) | relative viability ([2]; first compound 1 µM)
201T | 0.844 | 0.887 | 0.837 | 0.926 | 1.05 | 1.13 | 0.925 | 0.987 | 1.04 | 1.03 | 1.02 | 1.03 | 1.03 | 0.576 | 0.644 | 0.516 | 0.51 | 0.597
A549 | 0.288 | 0.29 | 0.251 | 0.288 |  |  |  |  |  |  |  |  |  |  |  |  |  | 
A-427 | 0.531 | 0.551 | 0.543 | 0.569 | 0.965 | 0.978 | 0.893 | 1.04 | 0.944 | 1.03 | 0.77 | 0.867 | 0.946 | 0.624 | 0.716 | 0.729 | 0.729 | 0.793
ABC-1 | 1.06 | 0.983 | 1.34 | 1.06 | 0.326 | 0.355 | 0.295 | 0.383 |  | 0.533 | 1.04 | 0.403 | 0.682 | 0.531 | 0.455 | 0.612 | 0.448 | 0.559
BEN | 0.726 | 0.741 | 0.673 | 0.905 | 0.823 | 0.825 | 1.02 | 0.976 | 0.235 | 0.337 | 0.332 | 0.571 | 0.452 | 0.308 | 0.289 | 0.304 | 0.337 | 0.398
CAL-12T |  |  |  |  | 0.986 | 0.97 | 1 | 1.09 | 0.234 | 1.07 | 0.431 | 0.362 | 0.427 | 0.404 | 0.459 | 0.343 | 0.323 | 0.326
COR-L23 | 0.428 | 0.453 | 0.461 | 0.468 | 1.03 | 1.06 | 0.845 | 0.916 | 0.669 | 0.642 | 0.696 | 0.57 | 0.568 | 0.521 | 0.445 | 0.505 | 0.467 | 0.534
COR-L 105 | 0.606 | 0.7 | 0.678 | 0.622 | 0.747 | 0.831 | 0.854 | 1.03 | 0.621 | 0.868 | 0.709 | 0.775 | 0.923 | 0.365 | 0.326 | 0.357 | 0.353 | 0.287
Calu-6 |  |  |  |  | 0.969 | 0.986 | 0.94 | 1.01 |  |  |  |  |  |  |  |  |  | 
ChaGo-K-1 | 0.508 | 0.515 | 0.512 | 0.536 | 0.861 | 1.09 | 1.14 | 0.969 | 0.564 | 0.588 | 0.655 | 0.535 | 0.505 | 0.621 | 0.636 | 0.55 | 0.58 | 0.6
EBC-1 |  |  |  |  | 0.497 | 0.503 | 0.531 | 0.574 |  |  |  |  |  |  |  |  |  | 
EKVX | 0.372 | 0.355 | 0.284 | 0.334 | 1.2 | 1.15 | 0.758 | 0.986 | 0.788 | 0.887 | 0.867 | 0.878 | 0.911 | 0.508 | 0.629 | 0.533 | 0.568 | 0.525
EMC-BAC-2 | 0.973 | 1.05 | 1.01 | 1.12 | 1.04 | 1.16 | 1.11 | 1.17 | 1.18 | 1.17 | 1.23 | 1.18 | 1.21 | 0.302 | 0.29 | 0.333 | 0.297 | 0.34
EPLC-272H | 0.382 | 0.418 | 0.317 | 0.392 | 0.893 | 0.969 | 0.827 | 0.942 | 0.228 | 0.141 | 0.311 | 0.262 | 0.309 | 0.357 | 0.413 | 0.382 | 0.334 | 0.397
H3255 | 0.588 | 0.612 | 0.582 | 0.603 | 0.674 | 0.798 | 0.7 | 0.624 | 0.84 | 0.754 | 0.838 | 0.771 | 0.958 | 0.323 | 0.412 | 0.378 | 0.284 | 0.305
HARA | 0.538 | 0.59 | 0.545 | 0.531 | 1.14 | 1.26 | 1.09 | 1.14 | 0.942 | 0.222 | 0.666 | 0.585 | 0.603 | 0.239 | 0.239 | 0.245 | 0.218 | 0.288
HCC-15 | 0.607 | 0.587 | 0.621 | 0.676 | 1.02 | 1.06 | 1 | 0.934 | 0.291 | 0.26 | 0.468 | 0.345 | 0.268 | 0.57 | 0.548 | 0.651 | 0.482 | 0.532
